System: Myo5 SH3 domain
Assay: SPOT analysis of cellulose-bound peptides (WISE), Myo5 SH3 domain (Dataset S4)
Type: binding, Saccharomyces cerevisiae
Settings: for The normalized value in BLU units: Myo5 SH3 domain
[1] = SPOT analysis of cellulose-bound peptides probed with Myo5 SH3 domain, normalized value
[2] = SPOT analysis of cellulose-bound 14-mer yeast proteome peptides, normalized value, mean where the peptide was synthesized more than once
[3] = SPOT analysis of membrane-synthesized peptides probed with Myo5 SH3 domain, normalized value
[4] = SPOT analysis of membrane-bound peptides, normalized value (see methods)

## IEFDLSKPFTPFQQ
[1]
  The normalized value in BLU units (SPOT analysis, Myo5 SH3): 134.1 BLU

## IEITHSEPAIPYRE
[2]
  The normalized value in BLU units: 114.3 BLU

## IEPDFIEPDAPLAA
[1]
  The normalized value in BLU units (SPOT analysis, Myo5 SH3): 61.4 BLU

## IERVWNGPVEPSDE
[1]
  The normalized value in BLU units (SPOT analysis, Myo5 SH3): 180.2 BLU

## IESFRERPLEPPRK
[3]
  The normalized value in BLU units (SPOT analysis, Myo5 SH3): 98.7 BLU

## IESLREIPYGPDFD
[3]
  The normalized value in BLU units (SPOT analysis, Myo5 SH3): 115.6 BLU

## IEVPMEYPFKPPKM
[2]
  The normalized value in BLU units: 384.5 BLU

## IFFKLIHPFLPILH
[2]
  The normalized value in BLU units: 503.3 BLU

## IFQSLLHPELPIII
[2]
  The normalized value in BLU units: 239.9 BLU

## IFVTRYLPYFPIMY
[4]
  The normalized value in BLU units: 156.7 BLU

## IGKSKSAPPIPEDT
[2]
  The normalized value in BLU units: 243.5 BLU

## IGSPRHAPSRPDSI
[3]
  The normalized value in BLU units (SPOT analysis, Myo5 SH3): 193.4 BLU

## IKMSRSPPRPPSLK
[3]
  The normalized value in BLU units (SPOT analysis, Myo5 SH3): 17731.3 BLU

## IKYFKKFPKDPLAM
[4]
  The normalized value in BLU units: 237.4 BLU

## ILAVKKNPQSPMYT
[4]
  The normalized value in BLU units: 175.4 BLU

## ILCAYNSPKVPADI
[1]
  The normalized value in BLU units (SPOT analysis, Myo5 SH3): 81.4 BLU

## ILEGKFEPVIPREW
[4]
  The normalized value in BLU units: 93.2 BLU

## ILERKNIPRQPAIR
[4]
  The normalized value in BLU units: 602.9 BLU

## ILFERILPILPVES
[2]
  The normalized value in BLU units: 339.9 BLU

## ILHQLGAPSIPENL
[1]
  The normalized value in BLU units (SPOT analysis, Myo5 SH3): 174.0 BLU

## ILIFLWIPDDPSKA
[1]
  The normalized value in BLU units (SPOT analysis, Myo5 SH3): 1371.6 BLU

## ILKNRMNPEKPYEL
[3]
  The normalized value in BLU units (SPOT analysis, Myo5 SH3): 321.6 BLU

## ILPPRIVPAIPKKA
[3]
  The normalized value in BLU units (SPOT analysis, Myo5 SH3): 3670.9 BLU

## ILPVLNIPLPPQEK
[1]
  The normalized value in BLU units (SPOT analysis, Myo5 SH3): 21.6 BLU

## ILQELSLPSRPVMP
[1]
  The normalized value in BLU units (SPOT analysis, Myo5 SH3): 51.9 BLU

## ILQILFEPMPPFNS
[2]
  The normalized value in BLU units: 200.5 BLU

## ILTCLPVPPPPVRP
[1]
  The normalized value in BLU units (SPOT analysis, Myo5 SH3): 616.9 BLU

## ILTLLKMPEVPNSV
[2]
  The normalized value in BLU units: 172.2 BLU

## ILVAYGLPVSPDEK
[1]
  The normalized value in BLU units (SPOT analysis, Myo5 SH3): 166.6 BLU

## ILVPHLDPIDPWEA
[2]
  The normalized value in BLU units: 166.0 BLU

## IMDAKFHPFKPQLF
[2]
  The normalized value in BLU units: 246.2 BLU

## INGEKACPFLPSSL
[3]
  The normalized value in BLU units (SPOT analysis, Myo5 SH3): 183.7 BLU

## INIAKAHPNFPIAL
[4]
  The normalized value in BLU units: 195.5 BLU

## INNNKMRPHLPPLS
[4]
  The normalized value in BLU units: 1004.0 BLU

## INNTRLSPNSPTPP
[2]
  The normalized value in BLU units: 139.6 BLU

## INTFKTLPTKPEMQ
[3]
  The normalized value in BLU units (SPOT analysis, Myo5 SH3): 167.1 BLU

## INVEREAPMFPVPY
[2]
  The normalized value in BLU units: 148.9 BLU

## IPAPKLVPPPPRTR
[4]
  The normalized value in BLU units: 82308.4 BLU

## IPLPHQPPPLPIYS
[1]
  The normalized value in BLU units (SPOT analysis, Myo5 SH3): 53588.9 BLU

## IPTSHAPPLPPTAP
[2]
  The normalized value in BLU units: 43593.6 BLU

## IPVGYVTPKFPSLY
[2]
  The normalized value in BLU units: 21.6 BLU

## IPYEKRDPTSPAPL
[3]
  The normalized value in BLU units (SPOT analysis, Myo5 SH3): 114.1 BLU

## IQQNKQGPKIPFYL
[3]
  The normalized value in BLU units (SPOT analysis, Myo5 SH3): 86.9 BLU

## IRTYKVVPLGPKAG
[4]
  The normalized value in BLU units: 100.2 BLU

## ISADKGFPLIPSGY
[3]
  The normalized value in BLU units (SPOT analysis, Myo5 SH3): 113.3 BLU

## ISHNKLSPSEPILC
[4]
  The normalized value in BLU units: 206.2 BLU

## ISNRRPVPRRPSQP
[4]
  The normalized value in BLU units: 377.4 BLU

## ITAEKSAPTSPEVY
[3]
  The normalized value in BLU units (SPOT analysis, Myo5 SH3): 94.2 BLU

## ITDTKLFPGNPNLM
[2]
  The normalized value in BLU units: 94.6 BLU

## ITRARYMPQDPNIV
[3]
  The normalized value in BLU units (SPOT analysis, Myo5 SH3): 190.2 BLU

## ITSIRGSPSLPKNK
[3]
  The normalized value in BLU units (SPOT analysis, Myo5 SH3): 370.3 BLU

## IVNEKRTPALPSNL
[3]
  The normalized value in BLU units (SPOT analysis, Myo5 SH3): 101.8 BLU

## IYHCKKQPLVPIGC
[4]
  The normalized value in BLU units: 293.5 BLU

## KAALKYHPDKPTGD
[3]
  The normalized value in BLU units (SPOT analysis, Myo5 SH3): 155.5 BLU

## KAGSFGAPSSPTSG
[2]
  The normalized value in BLU units: 123.7 BLU

## KAIVWRLPKMPKIK
[2]
  The normalized value in BLU units: 515.4 BLU

## KALPKRRPSPPLQS
[3]
  The normalized value in BLU units (SPOT analysis, Myo5 SH3): 1137.8 BLU

## KALWKIQPYLPEFS
[3]
  The normalized value in BLU units (SPOT analysis, Myo5 SH3): 146.1 BLU

## KAPYLVQPNVPEKH
[2]
  The normalized value in BLU units: 130.6 BLU

## KASSMPAPPPPPPP
[2]
  The normalized value in BLU units: 10514.9 BLU

## KAVHLYFPILPHCG
[2]
  The normalized value in BLU units: 125.3 BLU

## KDEVKLHPPEPKDL
[4]
  The normalized value in BLU units: 163.7 BLU

## KDFSKNAPYNPSEV
[4]
  The normalized value in BLU units: 142.6 BLU

## KDKARGNPEKPPYW
[4]
  The normalized value in BLU units: 59.9 BLU

## KEFFRLTPNQPVGL
[4]
  The normalized value in BLU units: 43.8 BLU

## KEFRFIFPLQPLFI
[1]
  The normalized value in BLU units (SPOT analysis, Myo5 SH3): 749.7 BLU

## KELIYKQPSGPGLV
[1]
  The normalized value in BLU units (SPOT analysis, Myo5 SH3): 79.3 BLU

## KELLLIPPGFPTKN
[2]
  The normalized value in BLU units: 122.9 BLU

## KELNLTGPKVPEDI
[2]
  The normalized value in BLU units: 102.4 BLU

## KELPFTGPSIPFEN
[1]
  The normalized value in BLU units (SPOT analysis, Myo5 SH3): 338.9 BLU

## KEQNWKHPLLPLLK
[1]
  The normalized value in BLU units (SPOT analysis, Myo5 SH3): 321.0 BLU

## KESKFGTPEKPLSD
[1]
  The normalized value in BLU units (SPOT analysis, Myo5 SH3): 249.8 BLU

From PMC314469, “Protein Interaction Networks by Proteome Peptide Scanning” (PLoS Biology, 2004)
